In PMC11984586, “A novel spider toxin as a selective antagonist of the Kv1 subfamily of voltage-gated potassium channels through gating modulation” (The Journal of Biological Chemistry, 2025):
Bridge positions count the residues as written; N and C are the ends. Peptide text beside a SMILES is read from it.

Columns and labels:
hKv1.2 = biological target: T1, hKv1.2 (Homo sapiens, UniProt P16389); experiment: Whole-cell patch clamp, Kv1.2 ionic current in CHO-K1 cells; type: cell-based; conditions: +30 mV, 500 ms, holding −80 mV, mean ± SD, n = 4–7, read-out: IC50, inhibition of Kv1.2 current (full inhibition)
T1 construct: expressed in transfected cells; host or cells: CHO-K1
Protocol: (§1) The cDNA of hKv1.1, hKv1.2, hKv1.3, rKv1.4, hKv1.5, mKv1.6, and hKv1.7 were subcloned into mammalian expression vectors pcDNA3.1 or pCMV-blank vectors, as well as other plasmids described previously ([35]). Channel mutants were generated by site-directed mutations. Briefly, the parental channel plasmid was amplified using a pair of oppositely directed primers harboring the designed mutation site, with KOD Fx (TOYOBO Co, Ltd). The resulting PCR mix was treated with FastDigest DpnI (Thermo Fisher Scientific) to remove the methylated template. Ten microliters of the digested product was then used to transform 100 μl E. coli DH5α competent cells. […]
(§2) CHO-K1 cells were selected for expressing Kv channels due to their lack of endogenous Kv channels, while HEK293 or ND7/23 cells were used for Nav and Cav channel expression. […] After 4 to 6 h transfection, cells were seeded onto poly-lysine–coated coverslips, and 24 to 36 h later, transfected cells were ready for patch-clamp analysis. […]
For Kv current recordings, the bath solution contained (in mM) the following: 140 NaCl, 5 KCl, 1 MgCl2, 2 CaCl2, 10 glucose, and 10 Hepes (pH 7.3, adjusted with NaOH), and the pipette solution contained (in mM) the following: 140 KCl, 2.5 MgCl2, 11 EGTA, and 10 Hepes (pH 7.3, adjusted with KOH). […] The steady-state fast inactivation of Kv1.3 was measured using a two-pulses protocol. […]

Kv1.4/Y416A = experiment: Whole-cell patch clamp, Tyr-to-Ala mutant homologous to Kv1.3 Y339; type: cell-based, rat; conditions: 10 μM MrVIII, +30 mV, 500 ms, holding −80 mV, mean ± SD, n = 4–6
Description: Building on the identification of key amino acid residues in Kv1.3 channel that interact with MrVIII through alanine-scanning mutagenesis, we extended our analysis to explore these residues across other Kv1 subfamily channels. […] However, MrVIII retained substantial inhibitory potency on Kv1.2/Y266A mutant, albeit without fully blocking the channel current. […] The profound reduction in MrVIII's effect across homologous mutants supports the idea that it binds to a conserved region.
as §1, with “template.” for “template. Ten microliters of the digested product was then used to transform 100 μl E. coli DH5α competent cells.”
as §2

T1 sequence (P16389 whole entry): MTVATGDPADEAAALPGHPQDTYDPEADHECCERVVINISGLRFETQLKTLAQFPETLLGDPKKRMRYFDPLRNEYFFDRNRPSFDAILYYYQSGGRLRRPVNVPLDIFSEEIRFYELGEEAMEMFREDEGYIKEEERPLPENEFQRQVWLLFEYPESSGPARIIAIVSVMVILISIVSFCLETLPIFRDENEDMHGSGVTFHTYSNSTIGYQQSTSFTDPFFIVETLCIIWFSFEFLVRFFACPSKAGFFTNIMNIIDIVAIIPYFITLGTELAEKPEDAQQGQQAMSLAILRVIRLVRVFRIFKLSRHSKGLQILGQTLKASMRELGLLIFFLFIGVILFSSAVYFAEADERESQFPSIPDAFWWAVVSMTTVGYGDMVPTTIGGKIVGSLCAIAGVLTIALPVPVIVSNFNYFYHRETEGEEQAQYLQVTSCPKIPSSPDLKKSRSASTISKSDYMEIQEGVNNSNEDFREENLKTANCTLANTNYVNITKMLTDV

How did the IC50 (hKv1.2) turn out when `CC[C@H](C)[C@@H]1NC(=O)[C@H](Cc2ccc(O)cc2)NC(=O)[C@H](CCC(N)=O)NC(=O)[C@@H]2CCCN2C(=O)[C@@H]2CSSC[C@H](NC(=O)[C@H](C)NC(=O)[C@H](CO)NC(=O)[C@H](CCC(=O)O)NC(=O)[C@H](CCC(=O)O)NC(=O)[C@@H](N)[C@@H](C)O)C(=O)NCC(=O)NCC(=O)N[C@@H](Cc3ccccc3)C(=O)N[C@@H](CC(N)=O)C(=O)N[C@@H](C)C(=O)N[C@@H](CCCNC(=N)N)C(=O)N[C@H]3CSSC[C@H](NC1=O)C(=O)N[C@@H](CCCCN)C(=O)NCC(=O)N[C@@H](Cc1c[nH]c4ccccc14)C(=O)N[C@@H](CCCNC(=N)N)C(=O)N[C@@H]([C@@H](C)O)C(=O)N[C@@H](CCCCN)C(=O)N[C@@H](CCCNC(=N)N)C(=O)N[C@H](C(=O)N[C@@H](CC(C)C)C(=O)N[C@@H](CC(N)=O)C(=O)N1CCC[C@H]1C(=O)O)CSSC[C@H](NC(=O)[C@H](CCCCN)NC(=O)[C@H](Cc1c[nH]cn1)NC(=O)[C@H](CC(C)C)NC(=O)[C@@H]1CCCN1C3=O)C(=O)N2` [MrVIII] (H-TEESACGGFNARCPLHKCCPQYICKGWRTKRCLNP-OH; disulfide 6-19, 13-24, 18-32; N-terminus and C-terminus assumed) was run?
The IC50 was 500 ± 100 pM.

And the “inhibition of Kv1.4/Y416A current” value (Kv1.4/Y416A)?
Its value is 63.5 ± 18.4%.
